Activity calls are given as the source filed them. The rule behind the calls is not given here.
How the values were obtained:
[1] = Binding affinity to HIV1 capsid protein p24 by SPR assay; design: species or system Human immunodeficiency virus 1
[2] = test system: Human immunodeficiency virus 1; experiment: Binding affinity to HIV1 capsid protein p24 assessed as turbidity at 100 uM by spectrophotometer analysis
[3] = test system: Human immunodeficiency virus 1; experiment: Antiviral activity against HIV1 NL4-3 pseudotyped with JR-FL envelope infected in human U87.CD4.CCR5 cells by single-round infection assay; format: functional, organism-based; conditions: Human immunodeficiency virus 1, NL4-3, U87/CD4/CCR5
[4] = Cytotoxicity against human U87 cells expressing CD4.CCR5; format: cell-based, U-87MG ATCC
[5] = Therapeutic index, ratio of CC50 for human U87 cells expressing CD4.CCR5 to IC50 for HIV1 NL4-3 pseudotyped with JR-FL envelope; format: cell-based, U-87MG ATCC; conditions: read-out: Ratio CC50/IC50
[6] = test system: Human immunodeficiency virus 1; experiment: Inhibition of HIV1 capsid protein p24 interaction with CPSF6 (308-327) at 2.5 uM
[7] = test system: Human immunodeficiency virus 1; experiment: Inhibition of HIV1 capsid protein p24 interaction with CPSF6 (308-327) at 300 uM

Row | Structure (SMILES) | Kd [1] | Activity [2] | IC50 [3] | CC50 [4] | selectivity ratio [5] | inhibition [6] | inhibition [7]
1 | O=C(Cc1c[nH]c2ccccc12)NCC1(c2ccccc2)CC1 | 38.2 µM | Active | 18.1 µM | 526 µM | > 29 | Active | 
2 | Cc1[nH]c2ccccc2c1CC(=O)N[C@@H](Cc1ccccc1)C(=O)N(C)c1ccccc1 | 2.53 µM | Active |  |  |  |  | Active
